Test results from patent publication US11401255B2, “Small molecule activators of Parkin enzyme function” (Mayo Foundation for Medical Education and Research, priority 2016, dated 2022).

Legend:
[1] = tested on: HeLa mtKeima cells; experiment: Mitophagy assay (mtKeima HCI); format: cell-based, human; conditions: 5 μM, low-dose CCCP
Method: HCI in 384-well plates was used to calculate the ratio of acidic to neutral mtKeima. Upon treatment with 10 μM CCCP, there was significant increase of the mtKeima ratio. Pre-treatment with compound 4 (dashed line, here shown 5 μM of compound 4) induced this also at low-dose CCCP concentrations while low dose CCCP alone (solid line) had only little effect on the ratio of acidic to neutral mtKeima.
HeLa mtKeima cells were pre-treated for 2 h with 12 different doses of Compounds 1, 2, 3, 4, and 31 before low-dose CCCP was added (3 μM final concentration). 10 μM CCCP was added to positive control wells. Cells were imaged live after 4 h and 8 h of CCCP. Values were normalized to the positive and negative (3 μM CCCP) control values for each time point. Curve fitting was used to calculate EC50 values.
To confirm mitophagy, HeLa cells expressing the pH-sensitive, mitochondria-targeted reporter mitoKeima46 were employed. A characteristic shift in the excitation wavelength of mitoKeima upon lysosomal fusion was used to determine mitochondrial turnover using […]. For mitoKeima experiments (Kim et al., Mol. Neurodegen. (2016) 11:55), cells were seeded in DMEM media lacking phenol red […]. Hoechst counterstain was added as a 5× stock in 5 μL volume. […] Segmentation of cells was performed as above and for each region of interest the ratio of acidic and neutral mitoKeima was calculated. […]

[2] = molecular target: T1, Parkin (Homo sapiens (Human), UniProt O60260); experiment: In vitro E2 discharge assay; format: biochemical; conditions: Ub-loaded UbcH7, presence of PINK1, vs DMSO
Method: (§1) FIGS. 15A-15H show Parkin activation in primary fibroblasts, neuronal cells and in vitro. Positive control (PC) cells were treated with DMSO and 10 μM of CCCP. Negative control (NC) cells were treated with 3.5 μM CCCP, some cells were left untreated (−). […] Vinculin was used as loading control. […] FIG. 15C: Human fibroblasts were directly converted to neurons and treated as in FIG. 15B. […] Beta III tubulin confirmed successful conversion of fibroblasts to iNeurons. FIG. 15D: Rat PC12 cells were treated as in FIG. 15A. Western blots show enhanced ubiquitylation of MFN2 and TOM70, and robust pSer65-Ub induction similar to PC, but not NC cells. FIG. 15E: In vitro E2 discharge assay. Recombinant Parkin was pre-incubated with compound 4 or DMSO as control and was mixed to Ub-loaded UbcH7. […] Control reactions were performed without PINK1 or Parkin. FIG. 15F: In vitro assay with isolated mitochondria from untreated or CCCP-treated HeLa cells lacking Parkin. Mitochondrial preparations were mixed with recombinant Parkin, E1, UbcH7, ATP and either compound 4 or DMSO as a control and incubated for the indicated times. […] Control samples were incubated in reaction mix without Parkin. […]
As the first readout for Parkin activity, E2 Ub discharge assays were performed, complementary to the Ub-charging assays of Parkin C431S in cells. […]

[3] = molecular target: T1, Parkin; experiment: In vitro ubiquitylation assay with isolated mitochondria; format: biochemical; conditions: mitochondria from CCCP-treated HeLa cells lacking Parkin, vs DMSO
Method: as §1
The in vitro assays with mitochondrial preparations were performed as follows. […] The mitochondrial pellet was resuspended in solution B and the protein concentration determined by BCA. […]

T1 sequence (O60260 whole entry): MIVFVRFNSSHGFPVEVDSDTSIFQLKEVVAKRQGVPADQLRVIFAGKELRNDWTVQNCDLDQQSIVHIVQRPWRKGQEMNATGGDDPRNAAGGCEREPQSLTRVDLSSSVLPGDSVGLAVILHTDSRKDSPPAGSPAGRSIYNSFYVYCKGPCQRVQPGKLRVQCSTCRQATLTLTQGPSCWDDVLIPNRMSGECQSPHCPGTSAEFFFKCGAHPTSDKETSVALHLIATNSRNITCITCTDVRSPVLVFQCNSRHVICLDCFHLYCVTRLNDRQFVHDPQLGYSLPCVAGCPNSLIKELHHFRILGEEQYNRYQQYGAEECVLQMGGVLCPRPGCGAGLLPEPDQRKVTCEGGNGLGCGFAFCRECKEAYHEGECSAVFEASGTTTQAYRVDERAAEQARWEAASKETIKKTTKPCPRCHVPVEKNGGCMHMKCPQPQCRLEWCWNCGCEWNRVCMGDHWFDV

O=C(Cn1ccnc1-c1ccccn1)Nc1ccc(-c2ccccc2)cc1 [Compound 4]
mitophagy flux (ratio of acidic to neutral mtKeima) [1]: enhanced mitophagy flux | E2 discharge [2]: slightly more E2 discharge | MFN1 ubiquitylation [3]: increased ubiquitylation
